Experimental findings from ChEMBL document CHEMBL4257578, “6'-Fluoro-3-deazaneplanocin: Synthesis and antiviral properties, including Ebola” (Bioorg Med Chem Lett, 2018) are described below.

The structures appear in SMILES notation. Calls of active or inactive are those of the source. No cut-off for these calls is given here.

Data set [1] has as its system Ebolavirus. Nature of the data set: Antiviral activity against Ebolavirus subtype Zaire infected in African green monkey Vero E6 cells. The class given is functional, Ebola virus - Zaire (1995). The conditions noted are these: Orthoebolavirus, Vero C1008.
Data set [2] can be described thus: Cytotoxicity against African green monkey Vero E6 cells assessed as reduction in cell viability. The class given is cell-based. The conditions noted are these: chlorocebus sabaeus, Vero E6 cells (Vero C1008).
Data set [3] can be described thus: Selectivity index, ratio of CC50 for African green monkey Vero E6 cells to EC50 for Ebolavirus subtype Zaire. The conditions noted are these: read-out: Ratio CC50/EC50. The class given is toxicity, Vero C1008.
In data set [4] the target is AdoHcyase_NAD domain-containing protein (Oryctolagus cuniculus, UniProt G1SVH0). Nature of the data set: Inhibition of SAHase from rabbit erythrocytes using S-adenosyl-L-homocysteine as substrate preincubated for 5 mins followed by substrate addition and measured after 1 hr by Measure-iTTM thiol quantitation reagent based assay.
AdoHcyase_NAD domain-containing protein, sequence (G1SVH0 whole entry, the tested form may be a part): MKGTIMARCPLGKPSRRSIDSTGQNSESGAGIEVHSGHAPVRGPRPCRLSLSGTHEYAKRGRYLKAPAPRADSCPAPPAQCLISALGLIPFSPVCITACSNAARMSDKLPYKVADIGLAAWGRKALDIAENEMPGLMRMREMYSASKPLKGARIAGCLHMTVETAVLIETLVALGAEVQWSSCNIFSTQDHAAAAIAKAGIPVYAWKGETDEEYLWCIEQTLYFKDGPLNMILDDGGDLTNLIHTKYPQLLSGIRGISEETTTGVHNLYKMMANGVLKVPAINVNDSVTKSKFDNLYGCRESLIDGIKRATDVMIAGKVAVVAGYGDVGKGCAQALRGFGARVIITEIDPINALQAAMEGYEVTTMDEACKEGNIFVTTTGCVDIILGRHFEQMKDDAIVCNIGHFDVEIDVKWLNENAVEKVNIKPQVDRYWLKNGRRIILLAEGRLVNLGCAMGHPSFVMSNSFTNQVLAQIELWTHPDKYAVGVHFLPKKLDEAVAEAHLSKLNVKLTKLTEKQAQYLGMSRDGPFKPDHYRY
Data set [5] has as its system Ebolavirus. Nature of the data set: Antiviral activity against Ebolavirus infected in African green monkey Vero cells. Format: functional, cell-based. The conditions noted are these: Orthoebolavirus.
The test system of the next data set is Yellow fever virus. Nature of the data set: Antiviral activity against Yellow fever virus infected in African green monkey Vero cells. Format: functional, organism-based.
Data set [6] in a line: Cytotoxicity against African green monkey Vero cells assessed as reduction in cell viability. The settings on record: chlorocebus sabaeus. Format: cell-based.
The nature of data set [7]: Cytotoxicity against African green monkey Vero 76 cells assessed as reduction in cell viability. The conditions noted are these: chlorocebus sabaeus. Format: cell-based.
The subject of the next data set is Tacaribe virus. Nature of the data set: Antiviral activity against Tacaribe virus infected in African green monkey Vero cells. Format: functional, organism-based. The settings on record: Mammarenavirus tacaribeense.
The test system of a further data set is Chikungunya virus. Nature of the data set: Antiviral activity against Chikungunya virus infected in African green monkey Vero 76 cells. Format: functional, organism-based.
The subject of another data set is Norovirus. Nature of the data set: Antiviral activity against Norovirus infected in human HG23 cells. Format: functional, organism-based.
The next data set deals with Usutu virus. Nature of the data set: Antiviral activity against Usutu virus infected in African green monkey Vero 76 cells. The class given is functional, organism-based.
The test system of the next data set is Influenza A virus. Nature of the data set: Antiviral activity against Influenza A virus (H1N1) infected in MDCK cells. The class given is functional, organism-based.
Data set [8] has as its system Venezuelan equine encephalitis virus. Nature of the data set: Antiviral activity against Venezuelan equine encephalitis virus infected in African green monkey Vero 76 cells. Format: functional, organism-based.
Another data set deals with Pichinde virus. Nature of the data set: Antiviral activity against Pichinde virus infected in African green monkey Vero. Format: functional, organism-based.
Data set [9] is described as follows: Selectivity index, ratio of CC50 for African green monkey Vero cells to EC50 for Ebolavirus. The class given is toxicity. The conditions noted are these: read-out: Ratio CC50/EC50.
In a further data set the test system is Poliovirus 1. Nature of the data set: Antiviral activity against Human poliovirus 1 infected in African green monkey Vero 76 cells. Format: functional, organism-based.
The nature of data set [10]: Cytotoxicity against MDCK cells assessed as reduction in cell viability. Format: cell-based, Canis lupus familiaris. The settings on record: dog.
For another data set, the system named is dengue virus type 2. Nature of the data set: Antiviral activity against Dengue virus 2 infected in African green monkey Vero 76 cells. Format: functional, organism-based.
For the next data set, the system named is Human adenovirus 5. Nature of the data set: Antiviral activity against Human adenovirus 5 infected in human A549 cells. The class given is functional, organism-based.
For another data set, the system named is Punta Toro virus. Nature of the data set: Antiviral activity against Punta Toro virus infected in African green monkey Vero 76 cells. The class given is functional, organism-based.
The next data set concerns Rift Valley fever virus. Nature of the data set: Antiviral activity against Rift Valley fever virus infected in African green monkey Vero 76 cells. Format: functional, organism-based.
Data set [11] concerns Japanese encephalitis virus. Nature of the data set: Antiviral activity against Japanese […] encephalitis virus infected in African green monkey Vero 76 cells. The class given is functional, organism-based.
The nature of data set [12]: Selectivity index, ratio of CC50 for African green monkey Vero 76 cells to EC50 for measles virus. The conditions noted are these: read-out: Ratio CC50/EC50. The class given is toxicity.
The test system of a further data set is Human betaherpesvirus 5. Nature of the data set: Antiviral activity against Human cytomegalovirus infected in human HFF cells. The class given is functional, organism-based.
The next data set concerns Measles morbillivirus. Nature of the data set: Antiviral activity against Measles virus infected in African green monkey Vero 76 cells. Format: functional, organism-based.
For another data set, the system named is West Nile virus. Nature of the data set: Antiviral activity against West Nile virus infected in African green monkey Vero 76 cells. The class given is functional, organism-based.
Data set [13] can be described thus: Selectivity index, ratio of CC50 for African green monkey Vero cells to EC50 for Pichinde virus. The class given is toxicity. The conditions noted are these: read-out: Ratio CC50/EC50.
For a further data set, the system named is Hepatitis B virus. Nature of the data set: Antiviral activity against Hepatitis B virus infected in human HepG2.2.15 cells. The class given is functional, organism-based.
Data set [14] is described as follows: Selectivity index, ratio of CC50 for MDCK cells to EC50 for Influenza A virus (H1N1). The conditions noted are these: dog, read-out: Ratio CC50/EC50. Format: toxicity.

Consider `Nc1ccnc2c1ncn2[C@@H]1C=C(CO)[C@@H](O)[C@H]1O`, for which the midpoint of the response with Ebolavirus [1], the EC50, lay at 4 µM. Moreover, the CC50 in data set [2] was determined as 60 µM. Besides, in data set [3], the selectivity ratio stood at 15.

In the data set on Ebolavirus [1], `Nc1cccc2c1ncn2[C@@H]1C=C(CO)[C@@H](O)[C@H]1O` displayed an EC50 of 2 µM. The half-maximal cytotoxic concentration (CC50) in data set [2] is more than 1700 µM. Moreover, the selectivity ratio in data set [3] was more than 850.

`Nc1cccc2c1ncn2[C@@H]1C(F)=C(CO)[C@@H](O)[C@H]1O` registered a half-inhibitory concentration (IC50) in data set [4] of 0.00869 µM. For the same molecule, the EC50 in the data set with Ebolavirus [5] is less than 0.36 µM; in the data set on Influenza A virus, 20.2 µM; in the data set with Pichinde virus, 57.6 µM; in the data set on Measles morbillivirus, less than 0.36 µM. Moreover, the result (in the data set on Yellow fever virus; in the data set with Tacaribe virus; in the data set on Chikungunya virus; with Norovirus; with Usutu virus; in data set [8]) was inactive. The result (in the data set on Poliovirus 1; with dengue virus type 2; in the data set with Human adenovirus 5; in the data set on Punta Toro virus; in the data set on Rift Valley fever virus; in data set [11]) was inactive. The result with Human betaherpesvirus 5, in the data set with West Nile virus and in the data set on Hepatitis B virus was inactive. Besides, the cytotoxic concentration (CC50) in data set [6] is 125 to 360 µM; in [7], 115 µM; in data set [10], 133 µM. In addition, the selectivity ratio is more than 347 in [9], more than 320 in [12], more than 6.3 in [13] and 6.6 in data set [14].

By EC50 is commonly meant the concentration needed to bring the measured effect to its halfway point. As a reminder, the CC50 is the concentration that lowers cell viability or growth by half. By IC50 is commonly meant the concentration at which inhibition is half-maximal.
